Experimental data as given in patent publication US5445937A, “Detection of Alzheimer's disease and other diseases using an improved photoaffinity labeling method” (The University of Kentucky Research Foundation, priority 1993, dated 1995).
Like-named read-outs stand apart in the source and are kept apart here. Blank lines part the entries; values can stand above or below the compound they belong to.

Columns and labels:
[1] = molecular target: T1, Purified GS (glutamine synthetase) (Homo sapiens, UniProt P15104); assay: Photoaffinity labeling (photoinsertion) of purified glutamine synthetase; format: binding, sheep
T1 construct: purified from sheep brain; purchased Sigma; host or cells: sheep brain
T1 sequence (P15104 whole entry): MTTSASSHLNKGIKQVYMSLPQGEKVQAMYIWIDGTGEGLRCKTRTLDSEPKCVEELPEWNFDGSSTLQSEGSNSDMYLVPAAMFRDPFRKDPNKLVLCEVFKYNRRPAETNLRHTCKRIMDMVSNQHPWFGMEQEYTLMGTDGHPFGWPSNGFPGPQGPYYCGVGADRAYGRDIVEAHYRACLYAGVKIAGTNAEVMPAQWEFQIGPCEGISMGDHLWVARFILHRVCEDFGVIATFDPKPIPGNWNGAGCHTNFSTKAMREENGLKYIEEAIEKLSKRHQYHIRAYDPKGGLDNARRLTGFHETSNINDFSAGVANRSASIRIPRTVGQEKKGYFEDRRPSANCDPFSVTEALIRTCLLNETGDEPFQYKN
Procedure: (§1) In each experiment, photoprobe was added to the cerebral spinal fluid sample and vortexed for 6 seconds. Each treated sample was then allowed to mix for an additional 24 seconds at room temperature before exposure to ultraviolet (UV) light.
(§2) The treated samples were placed on ice and exposed to UV light for 45 seconds. The UV light source, a hand-held UV lamp with an intensity of 6200 μW/cm^2, was positioned 1 cm from the sample. The UV activation of the photoprobe labeled samples was always conducted at 0° C.
(§3) Each sample was fractionated by 10% SDS-PAGE, run over a period of 21/2 to 3 hours, with constant amperage of 35 mA and an initial voltage of 140 volts. Since all of the proteins were very well separated on a 10% gel, a gradient was not necessary.
(§4) The quantity of protein, as well as the amount of the radioactivity incorporated into each protein, was quantified by densitometric scans of the exposed X-ray film, or of the stained gel, or by liquid scintillation spectrometry of the protein band excised from the gel. Significance was determined by analysis of variance at a rho level below […].
(§5) 1. Purified GS (purchased from Sigma, purified from sheep brain) comigrated on SDS-PAGE identically with the 42,000 Mr protein in the cerebral spinal fluid from Alzheimer's disease patients.
(§6) 2. Purified GS and the 42 kD protein found in the cerebral spinal fluid from Alzheimer's disease patients had the same approximate saturation and Kd values for binding ATP, 8-azido-ATP and 2-azido-ATP. […] Therefore, both GS and the 42 kD protein in the cerebral spinal fluid from Alzheimer's disease patients had the same nucleotide binding properties.
(§7) Purified glutamine synthetase from sheep brain was photolabeled by the above-described method, but under various ionic conditions.

[2] = system: T2, Purified GS (glutamine synthetase); assay: as above; format: binding, sheep; details: purified GS
T2 construct: purified from sheep brain; purchased Sigma; host or cells: sheep brain
T2 sequence (P15104 whole entry): as above
Procedure: as §1, §2, §3, §4, §5, §6, §7

[3] = molecular target: T3, 42 kD protein found in the cerebral spinal fluid from Alzheimer's disease patients (Homo sapiens, UniProt P15104); assay: Photoaffinity labeling (photoinsertion) of the 42 kD protein in cerebral spinal fluid from Alzheimer's disease patients; format: binding
T3 construct: 42 kD protein found in the cerebral spinal fluid from Alzheimer's disease patients; from tissue; host or cells: cerebral spinal fluid of Alzheimer's disease patients
T3 sequence (P15104 2-373 limits assumed): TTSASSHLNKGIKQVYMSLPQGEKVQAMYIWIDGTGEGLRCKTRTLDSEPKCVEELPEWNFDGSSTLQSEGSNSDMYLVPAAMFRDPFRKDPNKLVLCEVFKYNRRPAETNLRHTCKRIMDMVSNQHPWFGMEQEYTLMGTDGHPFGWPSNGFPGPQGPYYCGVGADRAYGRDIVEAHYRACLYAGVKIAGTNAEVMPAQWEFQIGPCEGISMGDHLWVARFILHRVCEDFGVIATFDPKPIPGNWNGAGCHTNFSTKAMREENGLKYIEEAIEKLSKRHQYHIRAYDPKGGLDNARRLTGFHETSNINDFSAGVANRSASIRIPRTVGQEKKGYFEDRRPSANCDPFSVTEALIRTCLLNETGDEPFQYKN
Procedure: Each assay was performed on 15 μl of cerebral spinal fluid. Although the amount of cerebral spinal fluid tested remained constant for each experiment, the protein concentration of each sample varied to some degree.
Each cerebral spinal fluid sample was photolabeled with [^32 P]8N3 ATP to identify the 42,000 Mr protein. The cerebral spinal fluid sample was comprised of cerebral spinal fluid, buffer, and water. The photoprobes used in each experiment were prepared by the inventor according to the procedures disclosed by Potter and Haley in Meth. in Enzymol., 91:613-633 (1983). Probes were also available commercially through ICN Radiochemicals 2727 Campus Drive, Irvine, Calif. 92715.
as §1, §2, §3, §4, §6

[4] = system: glutamine synthetase; assay: Enzymatic activity of glutamine synthetase; format: biochemical, sheep; details: 10 μM

saturation of photoinsertion ([1]; purified GS): 40 to 50 µM
amount of photo-incorporation on a mole to mole basis relative to [γ32P]8N3 ATP [2]: greater
amount of photo-incorporation on a mole to mole basis relative to [γ32P]8N3 ATP ([3]; 42 kD protein in AD CSF): greater
saturation of photoinsertion ([3]; 42 kD protein in AD CSF): 40 to 50 µM
Kd ([3]; 42 kD protein in AD CSF, approximate Kd from photoinsertion, read-out: half maximal photoinsertion): ~10 µM
Compound: [N-]=[N+]=Nc1nc(N)c2ncn([C@@H]3O[C@H](COP(=O)(O)OP(=O)(O)OP(=O)(O)O)[C@@H](O)[C@H]3O)c2n1 [2-azido-ATP, 2-azidoadenosine 5'-triphosphate]

Compound: [N-]=[N+]=Nc1nc2c(N)ncnc2n1[C@@H]1O[C@H](COP(=O)(O)OP(=O)(O)OP(=O)(O)O)[C@@H](O)[C@H]1O [8-azido-ATP, 8-azidoadenosine 5'-triphosphate]
saturation of photoinsertion ([1]; purified GS): 40 to 50 µM
Kd [3]: ~10 µM
saturation of photoinsertion ([3]; 42 kD protein in AD CSF): 40 to 50 µM

Compound: Nc1ncnc2c1ncn2[C@@H]1O[C@H](COP(=O)(O)OP(=O)(O)OP(=O)(O)O)[C@@H](O)[C@H]1O [ATP, adenosine triphosphate]
effect on photolabeling with 8- or 2-azido-ATP ([1]; purified GS, competition by natural nucleotide): decreased the photolabeling
effect on photolabeling with 8- or 2-azido-ATP ([3]; 42 kD protein in AD CSF, competition by natural nucleotide): decreased the photolabeling

Compound: [Cl][Mn][Cl] [MnCl2]
effect on photolabeling of GS by 8N3 ATP photolabel ([1]; purified sheep brain GS, 10 μM, FIG. 5): increases dramatically
effect on enzymatic activity of glutamine synthetase [4]: increases the enzymatic activity

Compound: O=C(O)O [ammonium bicarbonate]
enhancement of binding/photolabeling by [32P]2N3 ATP ([1]; purified GS, ligand added at 100 mM): about 5 fold
enhancement of binding/photolabeling by [32P]2N3 ATP ([3]; 42 kD CSF protein, ligand added at 100 mM): about 5 fold
